Measured values reported in PMC8347481, “Germacranolides from Carpesium divaricatum: Some New Data on Cytotoxic and Anti-Inflammatory Activity” (Molecules, 2021).
Like-named read-outs stand apart in the source and are kept apart here. One block for each molecule: values may come before it.

Experiments:
cancer cells = test system: cancer cells; design: method as in PMID 30127485, PMID 22908556; settings: cancer cells in vitro; cited from earlier work
NF-κB = settings: cited from earlier work
[1] = test system: human polymorphonuclear leukocytes (PMNs); assay: Cytotoxicity to neutrophils, propidium iodide staining and flow cytometry; assay type: cell-based; settings: at 2.5 µM or lower concentrations, 24 h incubation
Protocol: Cytotoxicity of 1 and 2 to human polymorphonuclear leukocytes (PMNs) was evaluated using propidium iodide (PI) staining and flow cytometry (FACS) analysis. The compounds were nontoxic in PMNs at 2.5 µM or lower concentrations (Figure 4).
Cytotoxicity was assessed by a standard flow cytometric probe using propidium iodide (PI) staining. After 24 h of incubation in the absence or presence of the tested germacranolide (at concentrations of 0.5, 1.0, 2.5 and 5.0 μM), the neutrophils (3.5 × 10^5) were harvested and centrifuged (1500 r.p.m., 10 min, 4 °C), washed once with cold PBS and resuspended in 400 μL of PBS. A 5 μL aliquot of PI solution (50 μg/mL) was added to the cell suspension. After 15 min of incubation with PI at room temperature, cells were analyzed by BD FACSCalibur flow cytometer (BD Biosciences, San Jose, CA, USA), and 10,000 events were recorded per sample.

[2] = test system: ROS release from f-MLP-stimulated human neutrophils; assay: ROS production, luminol-dependent chemiluminescence; assay type: cell-based; settings: f-MLP stimulation, concentration range 1–2.5 μM
Protocol: Activation of PMNs, either at a site of inflammation or induced in vitro by proinflammatory agents, results in an oxidative burst in these cells. The phenomenon is characterized by intense ROS generation and liberation of proteolytic enzymes from azurophilic granules. An effect of the sesquiterpene lactones 1 and 2 on ROS production in PMNs was assessed in response to N-formyl-Met-Leu-Phe (f-MLP) stimulation.
ROS production was measured using luminol-dependent chemiluminescence test. A 70 μL aliquot of neutrophil suspension (3.5 × 10^5) in (Ca^2+)-free HBSS buffer, 50 μL of the tested compound solution and 50 μL of luminol (100 μM) were added to a well in a 96-well plate. ROS production was initiated by the addition of f-MLP (30 μL of 0.1 μg/mL solution) to obtain a total volume of 200 μL per well. Chemiluminescence changes were measured for 40 min, at 2 min intervals, in a microplate reader (37 °C). The background chemiluminescence produced by nonstimulated cells was also determined. The percentage of inhibition was calculated by comparison to the stimulated control without the tested compound, at the maximum luminescence.

[3] = test system: IL-1β secretion by LPS-stimulated human neutrophils; assay: IL-1β release, ELISA; assay type: cell-based; settings: 0.5, 1.0 and 2.5 µM, 24 h after LPS stimulation
Protocol: (§1) In response to stimulation with proinflammatory agents, e.g., LPS or f-MLP, human neutrophils excrete an array of cytokines and chemokines, including TNF-α, IL-1β, IL-8 and CCL2 [29, 30]. In the present study, neutrophils were pretreated with the examined compounds (1 or 2) before their priming with LPS. Levels of IL-1β, IL-8, TNF-α and CCL2 were determined in the culture medium, using ELISA, 24 h after LPS stimulation.
(§2) Neutrophils (2 × 10^6) were cultured in 24-well plates in RPMI 1640 medium with 10% FBS, 10 mM HEPES and 2 mM L-glutamine, in the presence or absence of LPS (100 ng/mL) and in the absence or presence of 1 or 2 (final concentrations of the examined germacranolide in a range of 0.5–2.5 μM), at 37 °C with 5% CO2. The neutrophils were harvested after 24 h and centrifuged (2000 r.p.m., 10 min, 4 °C). The amount of released cytokines was measured by enzyme-linked immunosorbent assay (ELISA) following the manufacturer’s instructions (BD Biosciences, USA). The effects on IL-8, IL-1β, CCL2 and TNF-α production by the neutrophils were calculated by comparing the percentages of the released agents to the stimulated control without the tested compound.

[4] = test system: IL-8 secretion by LPS-stimulated human neutrophils; assay: IL-8 release, ELISA; assay type: cell-based; settings: 0.5, 1.0 and 2.5 µM, 24 h after LPS stimulation
Protocol: as §1, §2

[5] = test system: TNF-α secretion by LPS-stimulated human neutrophils; assay: TNF-α release, ELISA; assay type: cell-based
Protocol: as §1, §2

[6] = test system: CCL2 secretion by LPS-stimulated human neutrophils; assay: CCL2 release, ELISA; assay type: cell-based; settings: 0.5, 1.0 and 2.5 µM, 24 h after LPS stimulation
Protocol: as §1, §2

MCF-7 cell line = test system: MCF-7 cell line; design: method as in PMID 30127485; settings: cited from earlier work
SAOS-2 = assay: MTT viability test, osteosarcoma cells with p53 deletion; settings: Homo sapiens
Protocol: (§6) Two osteosarcoma cell lines: U-2 OS (with wild-type p53 status) and SAOS-2 (p53 null cell line) were used to evaluate cytotoxic activity of 1 and 2. Doxorubicin was employed as a reference drug. Viability of the cells treated by 1 or 2 (concentration range 0.014–50.0 µM) for 24 and 48 h was assessed by thiazolyl blue tetrazolium bromide (MTT) test.
(§7) Human osteosarcoma cell lines U-2 OS (ATCC HTB-96; wild-type p53 status) and SAOS-2 (ATCC HTB-85; p53 deletion) were cultured in McCoy’s 5A medium containing L-glutamine and supplemented with 10% FBS at 37 °C and in a humidified atmosphere with 5% CO2. […] After that, working solutions were diluted with culture media to the final 1× concentrations (0.014–50 μM).
(§8) For the MTT assay, the osteosarcoma cells suspended in the nutrient medium were seeded into 96-well microtiter plates (density 1.0 × 10^4 per well) and preincubated for 24 h (37 °C, 5% CO2). Subsequently, the cells were treated with 1 or 2 at different concentrations (0.014–50 μM) and further cultivated for another 24 or 48 h. After that, MTT was added for 1 h at the final concentration of 500 ng/mL. The culture medium was removed and the formazan crystals were dissolved in isopropanol containing 40 mM HCl. Absorbance was measured using Tecan microplate reader at 570 nm with the reference wavelength of 650 nm. […] Data were analyzed using Origin software.

U-2 OS = assay: MTT viability test, osteosarcoma cells with wild-type p53 status; settings: Homo sapiens, U2OS
Protocol: as §6, §7, §8

PC3 = assay: LDH cell viability assay, prostate cancer cells; assay type: cell-based; settings: Homo sapiens, PC-3; PC3, 24 h, LDH assay; read-out: IC50
Protocol: (§3) Normal prostate epithelial cells (PNT2), two prostate cancer cell lines (Du145 and PC3), human keratinocytes (HaCaT), two melanoma cell lines (A375 and HTB140) and two colon cancer cell lines (HT29 and Caco-2) were treated with 3 at a concentration range 1.0–50.0 µg/mL. Viability of the cells was estimated using lactate dehydrogenase (LDH) assay.
(§4) Cytotoxic activity of 3 was tested on human cancer and normal cells, grouped in three panels: prostate, skin and gastrointestinal. The prostate panel comprised prostate cancer cell lines DU145 (ATCC HTB-81) and PC3 (ATCC CRL-1435) and prostate normal epithelial cells PNT2 (ECACC 95012613). Melanoma cell lines A375 (ATCC CRL-1619) and HTB140 (ATCC Hs 294T) together with human keratinocytes HaCaT (obtained as a kind gift of Prof. Marta Michalik, Department of Cell Biology, Jagiellonian University) were included in the skin panel. Two colon cancer cell lines, namely Caco-2 (ATCC HTB-37) and HT29 (ATCC HTB-38), constituted the gastrointestinal panel. Du145 cells were grown in a modified Eagle’s medium with low (1.0 g/L) glucose concentration; HT29, PC3 and PNT-2 cells were grown in Dulbecco’s modified Eagle’s medium (DMEM) and F12 HAM Nutrient Mixture; Caco-2 cells were grown in modified Eagle’s medium with nonessential amino acids (NEAA); and melanoma cells and keratinocytes were maintained in modified Eagle’s medium with high (4.5 g/L) glucose concentration. The culture media contained antibiotics and 10% fetal bovine serum (FBS). All cultures were maintained at 37 °C in a humidified, 5% CO2-containing atmosphere.
(§5) The examined compound (3) was diluted in the culture media from freshly made stock solution in MeOH (10 mg/mL) to the working concentrations (from 0 to 50 μg/mL). Cell viability was determined as described previously. […] Then, the culture medium was replaced with the medium containing different concentrations of the assessed compound (1–50 μg/mL). After 24 h of incubation, the viability of the cells was determined using colorimetric lactate dehydrogenase (LDH) assay in comparison to the controls to which corresponding aliquots of MeOH diluted with culture media were added. Cells grown in the medium without the tested compound were used as control I (negative), and the positive control (control II) was obtained by incubation of the cells in the medium containing 1% Triton X-100. LDH released from the damaged cells into the cell culture medium was quantified by measuring the absorbance at 490 nm using a Synergy II Biotek microplate reader. Cytotoxicities of the examined compounds were calculated as follows: ((absorbance of the tested sample−absorbance of control I)/(absorbance of control II−absorbance of control I)) × 100. Results were means of three independent measurements (± SD). Doxorubicin (Ebewe Pharma G.m.b.H., Unterach, Austria) was used as a reference cytostatic drug.

HaCaT = assay: LDH cell viability assay, keratinocytes; assay type: cell-based, human; settings: Homo sapiens, 24 h, LDH assay, read-out: IC50
Protocol: as §3, §4, §5

A375 = assay: LDH cell viability assay, melanoma cells; assay type: cell-based; settings: Homo sapiens, A-375; A375, 24 h, LDH assay; read-out: IC50
Protocol: as §3, §4, §5

HTB140 = assay: LDH cell viability assay, melanoma cells; assay type: cell-based; settings: Homo sapiens; HTB140, 24 h, LDH assay; read-out: IC50
Protocol: as §3, §4, §5

[7] = test system: normal and cancer cell lines (prostate, skin, gastrointestinal panels); assay: LDH cytotoxicity, whole panel of normal and cancer cell lines; assay type: cell-based; settings: Homo sapiens; 24 h treatment, cell density 1.5 × 10^4; doxorubicin: except PC3 cells; read-out: IC50 range over the cell lines
Protocol: Cytotoxic activity of 3 was tested on human cancer and normal cells, grouped in three panels: prostate, skin and gastrointestinal. The prostate panel comprised prostate cancer cell lines DU145 (ATCC HTB-81) and PC3 (ATCC CRL-1435) and prostate normal epithelial cells PNT2 (ECACC 95012613). Melanoma cell lines A375 (ATCC CRL-1619) and HTB140 (ATCC Hs 294T) together with human keratinocytes HaCaT (obtained as a kind gift of Prof. Marta Michalik, Department of Cell Biology, Jagiellonian University) were included in the skin panel. Two colon cancer cell lines, namely Caco-2 (ATCC HTB-37) and HT29 (ATCC HTB-38), constituted the gastrointestinal panel. […]
The examined compound (3) was diluted in the culture media from freshly made stock solution in MeOH (10 mg/mL) to the working concentrations (from 0 to 50 μg/mL). Cell viability was determined as described previously. […] Then, the culture medium was replaced with the medium containing different concentrations of the assessed compound (1–50 μg/mL). After 24 h of incubation, the viability of the cells was determined using colorimetric lactate dehydrogenase (LDH) assay in comparison to the controls to which corresponding aliquots of MeOH diluted with culture media were added. […] LDH released from the damaged cells into the cell culture medium was quantified by measuring the absorbance at 490 nm using a Synergy II Biotek microplate reader. […]

PC3 cells = test system: PC3 cells; design: method as in PMID 33968193; settings: cited from earlier work
HepG2 cells = test system: HepG2 cells; design: method as in PMID 35520265; settings: cited from earlier work

Molecule: 2α,5-epoxy-5,10-dihydroxy- 6α-angeloyloxy-9β-(3-methylbutyryloxy)-germacran-8α,12-olide
- IC50 (cancer cells): > 7.6 µM
- NF-κB inhibitory effect (NF-κB; concentration range 1–10 μM): NF-κB inhibitory effect was shown

Molecule: 2β,5-epoxy-5,10-dihydroxy-6α-angeloyloxy-9β-isobutyryloxy-germacran-8α,12-olide
- IC50 (cancer cells): > 7.9 µM
- NF-κB inhibitory effect (NF-κB; concentration of 10 μM): NF-κB inhibitory effect was shown

- IC50 (SAOS-2; SAOS-2, 24 h): 9.11 µM
- IC50 (SAOS-2; SAOS-2, 48 h): 6.76 µM
- IC50 (U-2 OS; 24 h): 7.77 µM
- IC50 (U-2 OS; 48 h): 5.1 µM
Molecule: C=C1C(=O)O[C@H]2[C@H]1[C@@H](O)[C@H](OC(=O)C(C)CC)[C@H](C)CCC(=O)[C@](C)(O)[C@@H]2OC(=O)/C(C)=C\C (stereo partly drawn) [Compound 1, 4β,8α-dihydroxy-5β-angeloyloxy-9β-(2-methylbutyryloxy)-3-oxo-germacran-6α,12-olide]
- Cytotoxicity to PMNs (propidium iodide staining) [1]: nontoxic
- ROS generation [2]: significantly and dose-dependently reduced ROS generation
- IL-1β production upon LPS stimulation [3]: significant and dose-dependent inhibition
- IL-8 production upon LPS stimulation [4]: significant and dose-dependent inhibition
- TNF-α secretion ([5]; lowest concentration (0.5 μM)): could not be achieved
- TNF-α release ([5]; only in the two higher concentrations (1.0 and 2.5 μM), 24 h after LPS stimulation): statistically significant reduction
- CCL2 production upon LPS stimulation [6]: significant and dose-dependent inhibition
- Cytotoxicity (MCF-7 cell line): resistant

- IC50 (SAOS-2; SAOS-2, 24 h): 5.21 µM
- IC50 (SAOS-2; SAOS-2, 48 h): 3.57 µM
- IC50 (U-2 OS; 24 h): 3.18 µM
- IC50 (U-2 OS; 48 h): 2.52 µM
Molecule: C=C1C(=O)O[C@H]2[C@H]1[C@@H](O)[C@H](OC(=O)CC(C)C)[C@H](C)CCC(=O)[C@](C)(O)[C@@H]2OC(=O)/C(C)=C\C [Compound 2, 4β,8α-dihydroxy-5β-angeloyloxy-9β-(3-methylbutyryloxy)-3-oxo-germacran-6α,12-olide]
- Cytotoxicity to PMNs (propidium iodide staining) [1]: nontoxic
- ROS generation [2]: significantly and dose-dependently reduced ROS generation
- IL-1β production upon LPS stimulation [3]: significant and dose-dependent inhibition
- IL-8 production upon LPS stimulation [4]: significant and dose-dependent inhibition
- CCL2 production upon LPS stimulation [6]: significant and dose-dependent inhibition

Molecule: COc1cccc2c1C(=O)c1c(O)c3c(c(O)c1C2=O)C[C@@](O)(C(=O)CO)C[C@@H]3O[C@H]1C[C@H](N)[C@H](O)[C@H](C)O1 [Doxorubicin, reference compound]
- IC50 (PC3): > 50 µg/mL
- IC50 (HaCaT): > 4.68 µg/mL
- IC50 (A375): 0.59 ± 0.04 µg/mL
- IC50 (HTB140): > 5.71 µg/mL
- IC50 [7]: 1.1 to 10.5 µM
- IC50 (SAOS-2; SAOS-2, 24 h): 4.36 µM
- IC50 (SAOS-2; SAOS-2, 48 h): 0.08 µM
- IC50 (U-2 OS; 24 h): 1.87 µM
- IC50 (U-2 OS; 48 h): 0.17 µM

Molecule: C=C1C(=O)O[C@H]2[C@H]1[C@@H](OC(=O)C(C)C)C(=O)[C@H](C)CCC[C@](C)(O)[C@@H]2OC(=O)C(C)C [incaspitolide A, Incaspitolide A]
- Apoptosis induction (PC3 cells): appeared to induce apoptosis

Molecule: Cardivarolide H
- Apoptosis induction (HepG2 cells): appeared to induce apoptosis
